Target: MAPK14 (human) (UniProt Q16539)
Test: Inhibition of MAPK14 Kinase Activity

Chain of MAPK14 (human) (Q16539 whole entry, looked up): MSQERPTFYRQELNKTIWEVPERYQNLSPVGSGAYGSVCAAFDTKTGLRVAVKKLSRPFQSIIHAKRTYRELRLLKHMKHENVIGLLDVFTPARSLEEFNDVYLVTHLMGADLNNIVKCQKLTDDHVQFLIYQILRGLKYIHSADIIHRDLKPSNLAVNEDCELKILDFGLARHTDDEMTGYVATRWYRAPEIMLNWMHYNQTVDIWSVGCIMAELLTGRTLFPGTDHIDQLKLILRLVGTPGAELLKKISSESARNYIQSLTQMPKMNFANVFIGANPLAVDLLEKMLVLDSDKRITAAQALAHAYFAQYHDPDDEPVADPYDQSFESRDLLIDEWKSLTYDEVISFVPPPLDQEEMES

IC50 [nM] | Compound
≤ 1000 | CCOC(=O)c1sc2c(ccc(=O)n2-c2ccc3[nH]ccc3c2)c1Nc1ccccc1C#N
≤ 1000 | O=C(O)c1sc2c(ccc(=O)n2-c2ccccc2)c1Nc1ccccc1
≤ 1000 | O=C(NC1CCNC1)c1sc2c(ccc(=O)n2-c2ccccc2)c1Nc1ccc(F)cc1F (centres undefined)
≤ 1000 | NC(=O)c1sc2c(ccc(=O)n2-c2ccccc2)c1Nc1ccccc1Cl
≤ 1000 | O=c1ccc2c(Nc3cccc(Cl)c3)csc2n1-c1ccccc1
≤ 1000 | N#Cc1sc2c(ccc(=O)n2-c2ccccc2)c1Nc1cccc(Cl)n1
≤ 1000 | CCOC(=O)c1sc2c(ccc(=O)n2-c2ccccc2)c1Nc1ccccc1Cl
≤ 1000 | Cc1ccc(Nc2c(C(N)=O)sc3c2ccc(=O)n3-c2ccccc2)cc1Br
≤ 1000 | CON(C)C(=O)c1sc2c(ccc(=O)n2-c2ccccc2)c1Nc1ccccc1
≤ 1000 | COc1ccc(-n2c(=O)ccc3c(Nc4ccc(F)cc4F)c(C#N)sc32)cc1
≤ 1000 | CCN(CC)CCNC(=O)c1sc2c(ccc(=O)n2-c2ccccc2)c1Nc1ccccc1
≤ 1000 | Cc1cccc(Nc2c(C(N)=O)sc3c2ccc(=O)n3-c2ccccc2C)c1
≤ 1000 | Cc1cc(Nc2c(C(=O)N(C)O)sc3c2ccc(=O)n3-c2ccccc2)ccc1F
≤ 1000 | Cc1ccc(Nc2c(C#N)sc3c2ccc(=O)n3CC2CC2)cc1C
≤ 1000 | NC(=O)c1sc2c(ccc(=O)n2-c2cccnc2)c1Nc1ccccc1
≤ 1000 | CCOC(=O)c1sc2c(ccc(=O)n2CC2CC2)c1Nc1cccc(Br)c1
≤ 1000 | CCOC(=O)c1sc2c(ccc(=O)n2-c2ccc(F)cc2)c1Nc1ccccc1C#N
≤ 1000 | CCOC(=O)c1sc2c(ccc(=O)n2-c2ccccc2)c1Nc1cccc(C)c1
≤ 1000 | Cc1ccccc1-n1c(=O)ccc2c(Nc3ccc(F)cc3F)c(C(N)=O)sc21
≤ 1000 | NC(=O)c1sc2c(ccc(=O)n2CC2CC2)c1Nc1ccc(F)cc1F
≤ 1000 | N#Cc1sc2c(ccc(=O)n2-c2ccccc2)c1Nc1ccccc1O
≤ 1000 | CCOC(=O)c1sc2c(c(C)cc(=O)n2-c2ccccc2)c1Nc1ccccc1
≤ 1000 | CN(C)c1ccc(-n2c(=O)ccc3c(Nc4ccccc4)c(C(=O)N4CCCC4)sc32)cc1
≤ 1000 | N#Cc1sc2c(ccc(=O)n2-c2ccccc2)c1Nc1cccc(Cl)c1
≤ 1000 | Cc1cc(Nc2c(C#N)sc3c2ccc(=O)n3-c2ccccc2Cl)ccc1F
≤ 1000 | CCN1CCN(C(=O)c2sc3c(ccc(=O)n3-c3ccccc3)c2Nc2ccccc2)CC1

IC50 [nM] | Compound
≤ 1000 | NC(=O)c1sc2c(ccc(=O)n2-c2ccccc2)c1Nc1cccc(OC(F)(F)F)c1
≤ 1000 | NC(=O)c1sc2c(ccc(=O)n2-c2ccccc2)c1Nc1cccc(Cl)c1
≤ 1000 | CCOC(=O)c1sc2c(ccc(=O)n2-c2ccc(SC)cc2)c1Nc1cccc(C)c1
≤ 1000 | N#Cc1ccccc1Nc1c(C(N)=O)sc2c1ccc(=O)n2-c1ccsc1
≤ 1000 | CCOC(=O)c1sc2c(ccc(=O)n2-c2ccccc2)c1Nc1ccc(OC)c(F)c1
≤ 1000 | CCOC(=O)c1sc2c(ccc(=O)n2Cc2ccccc2)c1Nc1ccccc1
≤ 1000 | CSc1cccc(Nc2c(C#N)sc3c2ccc(=O)n3-c2ccccc2)c1
≤ 1000 | Cc1ccccc1-n1c(=O)ccc2c(Nc3ccc(F)cc3F)c(C#N)sc21
≤ 1000 | O=C(NCCN1CCCCC1)c1sc2c(ccc(=O)n2CC2CC2)c1Nc1ccccc1
≤ 1000 | Cc1ccc(-n2c(=O)ccc3c(Nc4cccc(C)c4)c(C#N)sc32)cc1
≤ 1000 | Cc1cccc(Nc2c(C(N)=O)sc3c2ccc(=O)n3CC2CC2)c1C#N
≤ 1000 | CCOC(=O)c1sc2c(ccc(=O)n2-c2ccc(Cl)cc2)c1Nc1ccc(F)c(C)c1
≤ 1000 | Cc1cccc(Nc2c(C(N)=O)sc3c2ccc(=O)n3C2CC2)c1
≤ 1000 | Cc1cccc(Nc2c(C(N)=O)sc3c2ccc(=O)n3-c2ccccc2)n1
≤ 1000 | CCOC(=O)c1sc2c(ccc(=O)n2-c2ccc(C(C)(C)O)cc2)c1Nc1ccccc1
≤ 1000 | Cc1cccc(Nc2c(C(N)=O)sc3c2ccc(=O)n3-c2ccccc2)c1C#N
≤ 1000 | CCOC(=O)c1sc2c(ccc(=O)n2-c2ccccc2)c1Nc1ccccc1C#N
≤ 1000 | NC(=O)c1sc2c(ccc(=O)n2-c2ccccc2)c1Nc1cccc(Br)c1
≤ 1000 | CCOC(=O)c1sc2c(ccc(=O)n2-c2ccc(SC)cc2)c1Nc1ccccc1C#N
≤ 1000 | CCN(CC)CCN(C)C(=O)c1sc2c(ccc(=O)n2-c2ccccc2)c1Nc1ccccc1
≤ 1000 | Cc1nccn1CCOc1ccc(-n2c(=O)ccc3c(Nc4ccc(F)cc4F)c(C(N)=O)sc32)cc1
≤ 1000 | NC(=O)c1sc2c(ccc(=O)n2-c2ccccc2[N+](=O)[O-])c1Nc1ccc(F)cc1F
≤ 1000 | N#Cc1sc2c(ccc(=O)n2-c2ccccc2)c1Nc1ccc(F)c(Cl)c1
≤ 1000 | CCOC(=O)c1sc2c(ccc(=O)n2-c2ccccc2[N+](=O)[O-])c1Nc1ccc(F)cc1F
≤ 1000 | CCOC(=O)c1sc2c(ccc(=O)n2-c2cccc(C)c2)c1Nc1cccc(C)c1
≤ 1000 | N#Cc1sc2c(ccc(=O)n2CC2CC2)c1Nc1ccc(F)c(Cl)c1

IC50 [nM] | Compound
≤ 1000 | CON(C)C(=O)c1sc2c(ccc(=O)n2-c2ccccc2)c1Nc1ccc(F)cc1F
≤ 1000 | CCOC(=O)c1sc2c(ccc(=O)n2-c2ccccc2)c1Nc1cccc(OC(F)(F)F)c1
≤ 1000 | CCOC(=O)c1sc2c(ccc(=O)n2-c2ccc(S(C)(=O)=O)cc2)c1Nc1cccc(C)c1
≤ 1000 | CCOC(=O)c1sc2c(ccc(=O)n2CC2CC2)c1Nc1ccccc1
≤ 1000 | CCc1cccc(Nc2c(C(N)=O)sc3c2ccc(=O)n3-c2ccccc2)c1
≤ 1000 | N#Cc1sc2c(ccc(=O)n2-c2ccccc2)c1Nc1cc(Cl)cc(Cl)c1
≤ 1000 | Cc1cc(Nc2c(C#N)sc3c2ccc(=O)n3-c2ccccc2)ccc1F
≤ 1000 | CCOC(=O)c1sc2c(ccc(=O)n2-c2ccccc2)c1Nc1ccc(F)c(Cl)c1
≤ 1000 | COC(=O)NNC(=O)c1sc2c(ccc(=O)n2-c2ccccc2)c1Nc1ccc(F)cc1F
≤ 1000 | Cc1cc(=O)n(-c2ccccc2)c2sc(C(N)=O)c(Nc3ccccc3)c12
≤ 1000 | N#Cc1cccc(Nc2c(C(=O)N3CCCC3)sc3c2ccc(=O)n3-c2ccccc2)c1
≤ 1000 | CCOC(=O)c1sc2c(ccc(=O)n2-c2ccc(SC)cc2)c1Nc1ccccc1
≤ 1000 | CCN(CC)C(=O)c1sc2c(ccc(=O)n2-c2ccccc2)c1Nc1ccccc1
≤ 1000 | CCOC(=O)c1sc2c(ccc(=O)n2CC2CC2)c1Nc1ccc(F)cc1F
≤ 1000 | N#Cc1sc2c(ccc(=O)n2-c2ccccc2)c1Nc1c(Cl)cccc1Cl
≤ 1000 | C=Cc1ccc(-n2c(=O)ccc3c(Nc4ccccc4)c(C(N)=O)sc32)cc1
≤ 1000 | Cc1ccc(Nc2c(C#N)sc3c2ccc(=O)n3CC2CC2)c(C)c1
≤ 1000 | CC(=O)c1sc2c(ccc(=O)n2-c2ccccc2)c1Nc1ccccc1
≤ 1000 | O=C(c1sc2c(ccc(=O)n2-c2ccccc2)c1Nc1ccc(F)cc1F)N1CCOCC1
≤ 1000 | CC(=O)c1ccc(-n2c(=O)ccc3c(Nc4cccc(Cl)c4)c(C#N)sc32)cc1
≤ 1000 | O=C(NCCCN1CCOCC1)c1sc2c(ccc(=O)n2-c2ccccc2)c1Nc1ccccc1
≤ 1000 | Cc1ccc(Nc2c(C(N)=O)sc3c2ccc(=O)n3CC2CC2)c(C)c1
≤ 1000 | O=C(O)c1sc2c(ccc(=O)n2-c2ccc3[nH]ccc3c2)c1Nc1ccccc1
≤ 1000 | CN1CCN(CCCNC(=O)c2sc3c(ccc(=O)n3-c3ccccc3)c2Nc2ccccc2)CC1
≤ 1000 | Cc1ccc(Nc2c(C(N)=O)sc3c2ccc(=O)n3CC2CC2)cc1C
≤ 1000 | NC(=O)c1sc2c(ccc(=O)n2-c2ccsc2)c1Nc1ccccc1

IC50 [nM] | Compound
≤ 1000 | CCOC(=O)c1sc2c(ccc(=O)n2-c2ccc([S+](C)[O-])cc2)c1Nc1ccccc1 (centres undefined)
≤ 1000 | Cc1cc(Nc2c(C(N)=O)sc3c2ccc(=O)n3-c2ccccc2)ccc1F
≤ 1000 | Cc1ccccc1Nc1c(C#N)sc2c1ccc(=O)n2-c1ccccc1
≤ 1000 | Cc1cc(Nc2c(C#N)sc3c2ccc(=O)n3C2CC2)ccc1F
≤ 1000 | CCOC(=O)c1sc2c(ccc(=O)n2-c2ccccc2)c1Nc1ccccc1
≤ 1000 | NS(=O)(=O)c1sc2c(ccc(=O)n2-c2ccccc2)c1Nc1ccc(F)cc1F
≤ 1000 | CCOC(=O)c1sc2c(ccc(=O)n2-c2ccccc2)c1Nc1cccc(C)c1C#N
≤ 1000 | CCOC(=O)c1sc2c(ccc(=O)n2-c2ccc(F)cc2)c1Nc1ccc(F)c(C)c1
≤ 1000 | O=C(c1sc2c(ccc(=O)n2-c2ccccc2)c1Nc1ccccc1)N1CCCC1
≤ 1000 | C=Cc1ccc(-n2c(=O)ccc3c(Nc4ccccc4)c(C(=O)OCC)sc32)cc1
≤ 1000 | CCOC(=O)c1sc2c(ccc(=O)n2-c2cccc(C)c2)c1Nc1ccc(F)c(C)c1
≤ 1000 | N#Cc1ccccc1Nc1c(C(N)=O)sc2c1ccc(=O)n2-c1ccc2[nH]ccc2c1
≤ 1000 | CCOC(=O)c1sc2c(ccc(=O)n2-c2ccc(N(C)C)cc2)c1Nc1ccccc1
≤ 1000 | NC(=O)c1sc2c(ccc(=O)n2-c2ccccc2)c1Nc1cccc(Cl)n1
≤ 1000 | CCOC(=O)c1sc2c(ccc(=O)n2-c2ccc(OCCn3ccnc3C)cc2)c1Nc1ccc(F)cc1F
≤ 1000 | NC(=O)c1sc2c(ccc(=O)n2-c2ccccc2)c1Nc1ccc(F)cc1F
≤ 1000 | CCOC(=O)c1sc2c(ccc(=O)n2CC2CCCCO2)c1Nc1ccc(F)cc1F (centres undefined)
≤ 1000 | Cc1cc(Nc2c(C(N)=O)sc3c2ccc(=O)n3-c2ccccc2Cl)ccc1F
≤ 1000 | Cc1cccc(Nc2c(C(N)=S)sc3c2ccc(=O)n3-c2ccccc2)c1
≤ 1000 | O=C(c1sc2c(ccc(=O)n2-c2ccccc2)c1Nc1cccc(Cl)c1)N1CCCC1
≤ 1000 | N#Cc1sc2c(ccc(=O)n2-c2cccnc2)c1Nc1ccccc1
≤ 1000 | NC(=O)c1sc2c(ccc(=O)n2-c2ccccc2)c1Nc1cc(Cl)cc(Cl)c1
≤ 1000 | Cc1cccc(Nc2c(C(N)=O)sc3c2ccc(=O)n3-c2ccccc2Cl)c1
≤ 1000 | CCN(CC)C(=N)c1sc2c(ccc(=O)n2-c2ccccc2)c1Nc1cccc(C)c1
≤ 1000 | CCOC(=O)c1sc2c(ccc(=O)n2-c2ccccc2)c1Nc1cccnc1
≤ 1000 | NC(=O)c1sc2c(ccc(=O)n2Cc2ccccc2)c1Nc1ccccc1

Source: the Kinase Knowledgebase extract (Sharma et al. 2016)
